According to patent publication US20220096515A1, “Methods and Formulations for Preventing Neurological or Psychiatric Disorders” (Huntington Medical Research Institutes, priority 2020, published 2022):
Values belong to the molecule of their own block, whether it stands above or below them.

Experiments:
P2Y13 receptor = target: T1, P2Y13 receptor (Mus musculus, UniProt Q9D8I2); assay: Calcium imaging, P2Y13 agonist; type: cell-based; conditions: 100 μM; periventricular endothelial cells
T1 construct: imaged continuously before and after αβ-meATP, Bz-ATP and 2Me-SADP application (100 μM); endogenous in cells; host or cells: Primary periventricular endothelial cells from mouse embryonic telencephalon
T1 sequence (Q9D8I2 1-337): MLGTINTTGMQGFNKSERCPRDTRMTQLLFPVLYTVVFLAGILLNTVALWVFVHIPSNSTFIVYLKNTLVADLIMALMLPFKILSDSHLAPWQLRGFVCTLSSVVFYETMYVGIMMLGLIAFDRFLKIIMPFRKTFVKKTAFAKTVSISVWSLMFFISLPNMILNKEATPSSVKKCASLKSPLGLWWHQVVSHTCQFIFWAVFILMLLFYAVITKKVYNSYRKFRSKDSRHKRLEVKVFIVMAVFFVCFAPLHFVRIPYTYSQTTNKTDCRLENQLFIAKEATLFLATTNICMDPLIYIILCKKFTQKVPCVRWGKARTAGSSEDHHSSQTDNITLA
Procedure: (§1) Calcium imaging: For Ca^2+ assays, periventricular endothelial cells (1 million cells per assay) were incubated with the Ca^2+ indicator dye FluoForte AM according to manufacturer's instructions (Enzo Life Sciences), loaded into the chamber of an FSX 100 microscope and imaged continuously before and after αβ-meATP, Bz-ATP and 2Me-SADP application (100 μM). Fluorescence micrographs were digitalized and results were expressed as change in fluorescence over baseline fluorescence.
(§2) An important aspect that influences endothelial cell proliferation is Ca^2+ influx, which is important for cell cycle progression in the neocortex. GABAA receptor activation in Gabrb3^fl/fl periventricular endothelial cells leads to an influx of Ca^2+ that influences cell proliferation. However, in Gabrb3^ECKO periventricular endothelial cells, due to the deletion of the β3 subunit, the GABAA receptors are dysfunctional. So, the autocrine feedback loop of GABA acting on GABAA receptors will not work in these Gabrb3^ECKO endothelial cells to cause Ca^2+ influx, even if GABA secretion is restored. […] Therefore, P2X4 expression at both mRNA and protein levels in periventricular endothelial cells were evaluated, prepared after the six-day saline and NAD^+ treatment paradigm (FIGS. 11J-11O). […]

[1] = system: periventricular endothelial cells isolated from E15 wildtype (CD1) forebrain; assay: Endothelial cell proliferation in culture (confluency, BrdU labeling index); type: cell-based, mouse; conditions: 30 μM and 100 μM
Procedure: Primary culture of endothelial cells and endothelial cell staining: Embryonic brains were dissected under a stereo-microscope, after the NAD^+ treatment paradigm and the telencephalon was removed. Pial membranes were peeled off. Telencephalon without pial membranes from the periventricular region was pooled. Purity of endothelial cell cultures was established with endothelial cell markers and determined to be one hundred percent. Isolation and culture of endothelial cells were performed according to published methodology. Periventricular endothelial cells were prepared from CD1 (wild type), saline-treated Gabrb3^fl/fl, saline-treated Gabrb3^ECKO, and NAD^+-treated Gabrb3^ECKO embryos. Endothelial cells were labeled with anti-biotinylated isolectinB4 (1:100, Sigma), anti-GABA (1:400, Sigma), anti-DAXX (1:100, Santa Cruz Biotechnology) and anti-P2X4 (1:100, Abclonal) followed by secondary detection with AlexaFluor conjugates (Invitrogen). DAPI (Invitrogen) was used to label nuclei. Images were taken on an FSX100 microscope (Olympus). 1 million cells were examined for each immunohistochemistry condition.
Endothelial cell proliferation and long-distance cell migration assay: To test for cell proliferation, CD1 periventricular endothelial cells (1 million cells per experiment) were incubated in the presence of the mitotic marker 5-bromo-2′-deoxyuridine (0.05% BrdU) with or without muscimol, for 1 hour to examine the impact on proliferation of these cells and processed for BrdU immunohistochemistry.
In one experiment, periventricular endothelial cells were isolated from E15 wildtype (CD1) forebrain and tested the effect of NAD^+ addition in vitro. Exogenous addition of 100 μM NAD^+ was able to initiate significant endothelial cell proliferation within 2 days of culture and a 35 mm culture dish was confluent within 4-6 days (FIGS. 2A-2D). This was an interesting observation, since untreated periventricular endothelial cells take approximately 12 days to reach confluency in 35mm dishes, in our well-established culture conditions. […] Vital elements of angiogenesis include effective endothelial cell proliferation, migration, sprouting, alignment, tube formation and branching. […] In some areas of the dish, the NAD^+-treated endothelial cells seemed to align and fold into tubular shapes (FIG. 2H), aspects that we have not seen in wild type or untreated periventricular endothelial cells in normal culture conditions.
Effects of NAD^+ addition to periventricular endothelial cells isolated from E15 wildtype (CD1) forebrain was more robust than GABA. (FIGS. 17A-17F) Phase contrast images of periventricular endothelial cells cultured from E15 CD1 forebrain at different time points in untreated conditions (FIGS. 17A-17B) or after plating with NAD^+ addition (100 μM; FIGS. 17C-17D) or GABA addition (5 μM; FIGS. 17E-17F). […] (FIG. 17G) All groups of periventricular endothelial cells were exposed to BrdU (1 mM BrdU per ml medium) for 1 hour followed by Isolectin B4/BrdU double labeling. Quantification of BrdU labeling indices; Data represents mean±SD (n=8, *P<0.05; Student's t-test).

P2X7 receptor = target: T2, P2X7 receptor (Mus musculus, UniProt Q9Z1M0); assay: Calcium imaging, P2X7 agonist; type: cell-based; conditions: 100 μM; periventricular endothelial cells
T2 construct: imaged continuously before and after αβ-meATP, Bz-ATP and 2Me-SADP application (100 μM); endogenous in cells; host or cells: Primary periventricular endothelial cells from mouse embryonic telencephalon
T2 sequence (Q9Z1M0 1-595): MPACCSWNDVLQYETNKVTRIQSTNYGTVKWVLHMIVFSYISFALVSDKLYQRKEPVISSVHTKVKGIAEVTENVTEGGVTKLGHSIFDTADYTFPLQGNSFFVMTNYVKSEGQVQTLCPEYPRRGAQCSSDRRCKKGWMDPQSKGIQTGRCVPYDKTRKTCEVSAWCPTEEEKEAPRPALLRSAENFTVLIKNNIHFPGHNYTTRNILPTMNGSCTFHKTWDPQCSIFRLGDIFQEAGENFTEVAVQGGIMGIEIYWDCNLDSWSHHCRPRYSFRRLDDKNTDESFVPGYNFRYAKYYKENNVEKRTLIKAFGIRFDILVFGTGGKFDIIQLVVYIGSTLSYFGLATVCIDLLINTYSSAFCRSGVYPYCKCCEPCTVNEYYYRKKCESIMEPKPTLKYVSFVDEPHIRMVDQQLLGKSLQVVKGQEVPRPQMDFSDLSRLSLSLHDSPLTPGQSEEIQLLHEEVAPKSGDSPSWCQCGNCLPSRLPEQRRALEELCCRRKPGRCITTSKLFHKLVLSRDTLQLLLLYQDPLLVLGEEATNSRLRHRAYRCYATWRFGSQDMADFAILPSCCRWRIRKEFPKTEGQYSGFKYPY
Procedure: as §1, §2

P2X4 receptor [2] = target: T3, P2X4 receptor (Mus musculus, UniProt Q9JJX6); assay: P2X4 activation/inactivation in wild type endothelial cells: Daxx mRNA and GABA ELISA; type: cell-based; conditions: cultured wild type periventricular endothelial cells
T3 construct: endogenous in cells; host or cells: Primary periventricular endothelial cells from mouse embryonic telencephalon (CD1 wild type; Gabrb3 fl/fl; Gabrb3 ECKO with or without NAD+)
T3 sequence (Q9JJX6 1-388): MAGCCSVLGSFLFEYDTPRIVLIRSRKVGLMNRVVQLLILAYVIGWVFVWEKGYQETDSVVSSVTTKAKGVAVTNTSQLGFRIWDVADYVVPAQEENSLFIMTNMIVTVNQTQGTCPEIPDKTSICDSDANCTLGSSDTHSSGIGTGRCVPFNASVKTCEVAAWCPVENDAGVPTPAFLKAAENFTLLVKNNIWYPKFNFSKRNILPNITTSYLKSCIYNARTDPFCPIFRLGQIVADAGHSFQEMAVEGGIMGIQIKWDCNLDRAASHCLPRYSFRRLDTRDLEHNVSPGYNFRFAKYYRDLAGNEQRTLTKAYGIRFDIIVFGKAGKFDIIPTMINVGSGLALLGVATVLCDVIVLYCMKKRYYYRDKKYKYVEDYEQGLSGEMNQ
Procedure: Quantitative real-time PCR: RT was performed by using iScript Reverse Transcription Supermix kit (Bio-Rad). PCR reactions were run on a CFX96 Touch Real Time PCR (Bio-Rad) with SsoAdvanced™ Universal SYBR® Green Supermix (Bio-Rad). Primers for qPCR (Daxx, P2x4, P2x7, P2y13, Tek, vwf, F2r, Sirt2, Nos1, Nrp1, Pax6, Gad1, Gad2, Grin2a, Trpm2, Trpc4 and Trpv6) were obtained from Thermo Fisher Scientific. The housekeeping gene Gapdh was used as a reference. The relative gene expression and subsequent fold changes among different samples were determined according to published methodology.
ELISA: Periventricular endothelial cells were prepared after the NAD^+ treatment paradigm, or after the treatment with purinergic receptor agonists/antagonists, and seeded in 12 well culture plates at 0.1×10^6 cells/well. Supernatants from endothelial cell cultures were collected after 96 hours and stored at −80° C. for ELISA. GABA concentrations were quantitatively determined by competitive ELISA according to the manufacturers' protocol (GABA Research ELISA kits, Labor Diagnostica Nord, Germany), and absorbance was measured using a multiplate microplate fluorescence reader (Molecular Devices, CA) at 450 nm.
(§3) An important aspect that influences endothelial cell proliferation is Ca^2+ influx, which is important for cell cycle progression in the neocortex. GABAA receptor activation in Gabrb3^fl/fl periventricular endothelial cells leads to an influx of Ca^2+ that influences cell proliferation. However, in Gabrb3^ECKO periventricular endothelial cells, due to the deletion of the β3 subunit, the GABAA receptors are dysfunctional. So, the autocrine feedback loop of GABA acting on GABAA receptors will not work in these Gabrb3^ECKO endothelial cells to cause Ca^2+ influx, even if GABA secretion is restored. In the absence of this mechanism, it was questioned whether the prenatal NAD^+ treatment was able to activate alternate mechanisms to trigger Ca^2+ influx in Gabrb3^ECKO endothelial cells. […] Therefore, P2X4 expression at both mRNA and protein levels in periventricular endothelial cells were evaluated, prepared after the six-day saline and NAD^+ treatment paradigm (FIGS. 11J-11O). P2X4 has been reported as the most abundantly expressed P2X receptor subtype in vascular endothelial cells from several tissues and its deficiency affects normal endothelial cell responses, such as Ca^2+ influx. However, P2X4 expression and functional significance in embryonic forebrain endothelial cells is unknown. […] To test whether P2X4 receptor activation on endothelial cells leads to an influx of Ca^2+, periventricular endothelial cells were incubated from the three groups in the presence of αβ-meATP that has been reported to show agonist activity at P2X receptors, including P2X4 (FIGS. 11N-11Q). […]

P2X4 receptor [3] = target: T3, P2X4 receptor; assay: Calcium imaging, P2X receptor agonist; type: cell-based; conditions: 100 μM
Procedure: as §1, §3

influx of Ca^2+ (P2Y13 receptor): produced an influx of Ca^2+
Molecule: CSc1nc(N)c2ncn([C@@H]3O[C@H](COP(=O)(O)OP(=O)(O)O)[C@@H](O)[C@H]3O)c2n1 [2Me-SADP]

Molecule: NCCCC(=O)O [GABA, reference compound]
endothelial cell proliferation [1]: no notable effect on cell proliferation

influx of Ca^2+ (P2X7 receptor): produced an influx of Ca^2+
Molecule: Bz-ATP

Daxx mRNA expression (P2X4 receptor [2]): reduced Daxx expression | GABA secretion by ELISA (P2X4 receptor [2]): increased GABA secretion
Molecule: Nc1ncnc2c1ncn2[C@@H]1O[C@H](COP(=O)(O)CP(=O)(O)OP(=O)(O)O)[C@@H](O)[C@H]1O [αβ-meATP]
intracellular calcium (P2X4 receptor [3]; NAD^+-treated Gabrb3^ECKO endothelial cells): significant increase in intracellular calcium | intracellular calcium (P2X4 receptor [3]; saline-treated Gabrb3^ECKO endothelial cells): no marked increase in intracellular calcium | intracellular calcium (P2X4 receptor [3]; saline-treated Gabrb3^fl/fl endothelial cells): significant increase in intracellular calcium

Molecule: O=C1CC(=O)N(c2cccc(-c3nc(=S)o[nH]3)c2)c2ccc3ccccc3c2N1 [+NP-1815-PX, NP-1815-PX]
Daxx mRNA expression (P2X4 receptor [2]): increased Daxx expression | GABA secretion by ELISA (P2X4 receptor [2]): reduced GABA secretion
